Measured values published in patent US20210121426A1, “BLOOD PURIFICATION BY ALKALINIZING AGENT” (TOHOKU UNIVERSITY, priority 2017, published 2021).
Marks after values point to notes of the source that are not given here.

Key:
phenylacetyl-L-glutamine = test: Human clinical trial in CKD patients: phenylacetyl-L-glutamine in plasma and early morning urine (LC-MS/MS); type: in vivo; design: key to Influence on concentration of PAG / Influence on PAG U/P ratio: Excellent effects: ◯; Poor effects: X; No significant difference: —; (◯): whether or not there is an effect of promoting excretion of indoxyl sulfate into the urine cannot be determined
Description: (§1) 1. […] Patients were assigned to each group so that age, sex, presence of diabetes, and eGFR were not biased. Each group was treated according to the “CKD medical care guide-summary of treatment” (hereinafter referred to as standard treatment).
(§2) An alkalinizing agent was not administered to the control group. […] A pH of early morning urine was controlled over time so that the dosage could be increased up to 6 tablets, 3 times a day (morning, noon, evening) as needed according to the discretion of the physician in cases where a pH of early morning urine was less than pH 6.5. To the group B, 3 tablets a day in which each tablet contained 500 mg of sodium bicarbonate were orally administered 3 times a day (morning, noon, evening) for 24 weeks. A pH of early morning urine was controlled over time so that the dosage could be increased up to 6 tablets, 3 times a day (morning, noon, evening) as needed according to the discretion of the physician in cases where a pH of early morning urine was less than pH 6.5.
(§3) Early morning urine and blood were collected before the start of administration, and 6 weeks, 12 weeks, and 24 weeks after the start of administration, and each specimen was stored at −80° C. Methods used in the present field for indoxyl sulfate, p-cresyl sulfate, phenylacetyl-L-glutamine, hippuric acid, and argininosuccinic acid in urine and blood (Sato, E., et. al., Metabolic alteration by indoxyl sulfate in skeletal muscle induce uremic sarcopenia in chronic kidney disease., Sci Rep. 2016 Nov. 10; 6:36618. doi: 10.1038/srep36618, and the like) were referred to, and quantitative analysis was performed using the following liquid chromatography triple quadrupole mass spectrometer (LC-MS/MS).
For LC, NANOSPACE SI-2 (manufactured by Shiseido) was used, and […] MGM was selected as the analytical column.
For MS, TSQ Quantiva (manufactured by Thermo Fisher Scientific Co., Ltd.) was used, and five compounds were ionized in the negative mode and detected using the Selected Reaction Monitoring method. The quantitative value was calculated using a calibration curve prepared with a standard solution of each compound.
(§4) For statistical analysis, the Mann-Whitney test was used for comparison between groups, and the Wilcoxon test was used for comparison of changes over time. The Pearson test was used for correlation.
Then, the average value and SD of each group were calculated for (i) to (ix) above. For each of (iv) to (ix) above, the average value and SD of each group were calculated for all data of 6 weeks, 12 weeks, and 24 weeks after the start of administration in each group.

cystatin C = test: Human clinical trial: cystatin C (colloidal gold agglutination method); type: in vivo
Description: as §1, §2, §3
In addition, the amount of urinary β2-microglobulin was measured by latex agglutination method using the LZ test “Eiken” β2-M and LZ-β2-M standard U “Eiken” (Eiken Chemical Co., Tokyo, Japan). Furthermore, the amount of cystatin C in the serum was measured by a colloidal gold agglutination method using Nescoat GC Cystatin C (Nm) (Alfresa Pharma, Osaka, Japan).
as §4

[1] = 0 W, before the start of administration
[2] = 6-24 W, all data of 6, 12 and 24 weeks

With O=C([O-])O.[Na+] [Bicarbonate, sodium bicarbonate] the “Phenyl Acetyl L-Glutamine (PAG)-Urine/Plasma ratio” value (phenylacetyl-L-glutamine; [1]) was 102.2 ± 96.5, the “Plasma Phenyl Acetyl L-Glutamine (PAG)” value (phenylacetyl-L-glutamine; [1]) was 1324 ± 949 ng/mL and the “Urine Phenyl Acetyl L-Glutamine (PAG) (early morning urine)” value (“Urine Phenyl Acetyl L-Glutamine (PAG)” below) (phenylacetyl-L-glutamine; [1]) was 124676 ± 149757 ng/mL. The “PAG - Urine/Plasma ratio, change from week 0” value (phenylacetyl-L-glutamine; [2]) was −14.9 ± 95.3, the “Phenyl Acetyl L-Glutamine (PAG)-Urine/Plasma ratio” value (phenylacetyl-L-glutamine; [2]) was 87.3 ± 86.2 and the “Plasma PAG, change from week 0” value (phenylacetyl-L-glutamine; [2]) was -98.6 ± 688.1 ng/mL. The “Plasma Phenyl Acetyl L-Glutamine (PAG)” value (phenylacetyl-L-glutamine; [2]) was 1226 ± 983 ng/mL, the “Urine PAG, change from week 0” value (phenylacetyl-L-glutamine; [2]) was -13663 ± 74566 ng/mL and the “Urine Phenyl Acetyl L-Glutamine (PAG)” value (phenylacetyl-L-glutamine; [2]) was 109378 ± 163923 ng/mL. For the same compound, the “PAG - Urine/Plasma ratio, change from week 0” value (phenylacetyl-L-glutamine; 6 W) was −8.5 ± 57.8, the “Phenyl Acetyl L-Glutamine (PAG)-Urine/Plasma ratio” value (phenylacetyl-L-glutamine; 6 W) was 93.7 ± 84.0 and the “Plasma PAG, change from week 0” value (phenylacetyl-L-glutamine; 6 W) was -84.0 ± 636.1 ng/mL. For the same compound, the “Plasma Phenyl Acetyl L-Glutamine (PAG)” value (phenylacetyl-L-glutamine; 6 W) was 1240 ± 1062 ng/mL, the “Urine PAG, change from week 0” value (phenylacetyl-L-glutamine; 6 W) was 20077 ± 118811 ng/mL and the “Urine Phenyl Acetyl L-Glutamine (PAG)” value (phenylacetyl-L-glutamine; 6 W) was 144753 ± 246773 ng/mL. For the same compound, the “PAG - Urine/Plasma ratio, change from week 0” value (phenylacetyl-L-glutamine; 12 W) was −31.8 ± 81.8, the “Phenyl Acetyl L-Glutamine (PAG)-Urine/Plasma ratio” value (phenylacetyl-L-glutamine; 12 W) was 70.4 ± 46.8 and the “Plasma PAG, change from week 0” value (phenylacetyl-L-glutamine; 12 W) was -171.6 ± 896.9 ng/mL. For the same compound, the “Plasma Phenyl Acetyl L-Glutamine (PAG)” value (phenylacetyl-L-glutamine; 12 W) was 1153 ± 1000 ng/mL, the “Urine PAG, change from week 0” value (phenylacetyl-L-glutamine; 12 W) was -42198 ± 85069 ng/mL and the “Urine Phenyl Acetyl L-Glutamine (PAG)” value (phenylacetyl-L-glutamine; 12 W) was 82478 ± 112943^b ng/mL. The “concentration of phenylacetyl-L-glutamine in urine” value (phenylacetyl-L-glutamine; 12 and 24 weeks after administration, compared to before administration) was “such an effect was not recognized”, the “PAG - Urine/Plasma ratio, change from week 0” value (phenylacetyl-L-glutamine; 24 W) was −4.3 ± 133.9 and the “Phenyl Acetyl L-Glutamine (PAG)-Urine/Plasma ratio” value (phenylacetyl-L-glutamine; 24 W) was 97.9 ± 116.4. For the same compound, the “Plasma PAG, change from week 0” value (phenylacetyl-L-glutamine; 24 W) was -40.3 ± 514.7 ng/mL, the “Plasma Phenyl Acetyl L-Glutamine (PAG)” value (phenylacetyl-L-glutamine; 24 W) was 1284 ± 945 ng/mL and the “Urine PAG, change from week 0” value (phenylacetyl-L-glutamine; 24 W) was -23774 ± 117957 ng/mL. The “Urine Phenyl Acetyl L-Glutamine (PAG)” value (phenylacetyl-L-glutamine; 24 W) was 100902 ± 91424 ng/mL, the “Influence on concentration of PAG” value (phenylacetyl-L-glutamine; Plasma, comparison with Cont) was “—” and the “Influence on concentration of PAG” value (phenylacetyl-L-glutamine; Plasma, comparison with reference drug) was “—”. For the same compound, the “Influence on PAG U/P ratio” value (phenylacetyl-L-glutamine; comparison with Cont) was “—”, the “Influence on PAG U/P ratio” value (phenylacetyl-L-glutamine; comparison with reference drug) was “—” and the “Influence on concentration of PAG” value (phenylacetyl-L-glutamine; Urine, comparison with Cont) was “—”. For the same compound, the “Influence on concentration of PAG” value (phenylacetyl-L-glutamine; Urine, comparison with reference drug) was “X”, the “concentration of phenylacetyl-L-glutamine in plasma (decreasing effect)” value (phenylacetyl-L-glutamine; compared to before administration) was “strongly recognized” and the “Plasma Cystatine C” value (cystatin C; [1]) was 1.165 ± 0.296 mg/L. The “Plasma Cystatine C” value (cystatin C; [2]) was 1.154 ± 0.278 mg/L, the “Plasma Cystatine C” value (cystatin C; 6 W) was 1.171 ± 0.281 mg/L and the “Plasma Cystatine C” value (cystatin C; 12 W) was 1.151 ± 0.295 mg/L. For the same compound, the “Plasma Cystatine C” value (cystatin C; 24 W) was 1.141 ± 0.275 mg/L and the “influence on the function of glomeruli” value (cystatin C; from cystatin C, Table 8) was “no influence”.
